Laboratory results published in the METLIN SMRT retention time set (Domingo-Almenara et al. 2019).

Test: gradient 5% acetonitrile 3 min, to 50% in 2 min, to 85% in 15 min, held 3 min, 100 µL/min
Conditions: column: Zorbax Extend-C18 2.1 x 50 mm; eluents: water / acetonitrile, 0.1% formic acid
Outline: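 Retention times of pure standards were taken from adduct peaks that were selected by computer and manually inspected. Over 3 months, mixtures of ~100 molecules were run by HPLC–quadrupole time-of-flight mass spectrometry in positive and negative ionization mode. The Zorbax Extend-C18 column (2.1 × 50 mm, 1.8 μm) ran at 100 μL/min in water and acetonitrile, each containing 0.1% formic acid, with 40 μL dead volume and 900 μL dwell volume.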

Structure (SMILES) | RP-LC retention time
O=C(c1ccc2cc[nH]c2c1)N1CCN(C(=O)c2nnn3c2COC(c2ccccc2)C3)CC1 (configuration not stated) | 773 s
CCNC(=O)NCC1CCN(C(=O)NC(C)(C)C)CC1 | 597 s
CCOC(=O)c1c(-c2cccs2)csc1NC(=O)CSc1ncn[nH]1 | 815 s
O=C(Cn1ccc2ccccc21)N1CCN(c2ccc(-c3ccccn3)nn2)CC1 | 652 s
O=C(CCC1CCCN(C(=O)Nc2ccccc2)C1)NCc1cccc(F)c1 (configuration not stated) | 806 s
O=C([C@@H]1OCC(=O)N(C2CC2)[C@H]1c1ccccc1)N1CCN(c2ccccc2)CC1 | 834 s
O=C(NCCn1c(=O)n(Cc2ccccc2)c2cccnc21)c1cccs1 | 744 s
O=c1[nH]cc(S(=O)(=O)NC2CC3CCC2C3)c(=O)[nH]1 (configuration not stated) | 637 s
CCCn1c(=O)c2sc(N3CCCC3)nc2n(CC(=O)NCCC2=CCCCC2)c1=O | 997 s
O=C(NC1CCCCC1)C1CCN(Cc2cc3ccccc3n2Cc2ccccc2Cl)CC1 | 847 s
O=C(NCCn1c(=O)n(Cc2ccc(F)cc2)c2cccnc21)c1nccc2ccccc12 | 840 s
O=C(CC1CCCCC1)NC1CCCN(c2ccc(=O)n(CC3CC3)n2)C1 (configuration not stated) | 836 s
O=C(NCc1ccc(Br)cc1)C1CCCN(c2nccnc2Sc2ccccc2)C1 (configuration not stated) | 1110 s
O=C(NCc1ccccc1)C1CC(=O)N(c2ccc3c(c2)CCN3C(=O)C2CCC2)C1 (configuration not stated) | 769 s
Cn1ncc(N2CCCC(C(=O)NC3CCCCCC3)C2)cc1=O (configuration not stated) | 726 s
Cc1ccc(-c2nnc(-c3cccnc3NCCCN3CCOCC3)o2)cc1 | 690 s
COCc1nc2cccnc2n1C1CCN(C(=O)Nc2ccccc2C(=O)OC)CC1 | 784 s
CCOC(=O)/C=C/c1c(C)[nH]c(=O)[nH]c1=O | 610 s
O=C(NCc1ccc(N2CCOCC2)cc1)c1cn2ccccc2n1 | 591 s
CCN1CCN(CCNC(=O)C2CCCN(S(=O)(=O)c3ccc4c(ccn4CC)c3)C2)CC1 (configuration not stated) | 626 s
CC(C)(C)C(O)CCNC(=O)Nc1ccc2c(c1)OCO2 (configuration not stated) | 690 s
O=C(CN1C(=O)C2CCCCN2c2ccc(S(=O)(=O)N3CCCC3)cc21)NCC1COCCO1 (configuration not stated) | 736 s
CCC1CN2C=NC(N3CCN(C(=O)c4ccc5c(c4)OCO5)CC3)=CC2=N1 (configuration not stated) | 609 s
CC(C)OCCCNC(=O)c1ccc2c(c1)N(C)C(=O)C1CCCCN21 (configuration not stated) | 770 s
CN(C)c1cc(N2CCCC(NC(=O)c3cccnc3)C2)ncn1 (configuration not stated) | 553 s
Cc1ncoc1C(=O)N1CCC(c2noc(-c3cccnc3)n2)C1 (configuration not stated) | 640 s
CCN1CCN(C(=O)Cn2c(=O)c3cnc(-c4ccc(Cl)cc4)nc3n(CC)c2=O)CC1 | 716 s
CCc1nc2cccnc2n1CCN1CCN(C(=O)Nc2cccc(Br)c2)CC1 | 616 s

Second part, the compound after the results:

RP-LC retention time | Structure (SMILES)
807 s | Cn1c(=O)oc2cc(-c3noc(CNC(=O)Cc4ccc(Cl)cc4)n3)ccc21
695 s | Cc1ccc(C)c(NC(=O)Nc2ccc3nnc(C)n3c2)c1
713 s | Cc1nn2c(=O)cc(CSc3nnc(-c4ccc5c(c4)OCO5)o3)nc2s1
1040 s | COC(=O)c1sccc1NC(=O)N1CCCC1c1noc(COc2ccc(F)cc2)n1 (configuration not stated)
604 s | Cn1cc(CCN2CCN(S(=O)(=O)c3cccs3)CC2)c2cccnc21
592 s | Cc1nc2ccn(Cc3cccnc3)c(=O)c2cc1C(=O)NCc1ccc2c(c1)OCO2
891 s | O=C1CC(c2ccc(F)cc2)Cc2c1cnn2-c1nc2ccccc2[nH]1 (configuration not stated)
870 s | O=C(Nc1ccc(-c2nc3ccccc3o2)cc1)Nc1c(F)cccc1F
999 s | CCn1cc(-c2nc(C)c(C(=O)Nc3ccc(F)cc3)s2)c2cccnc21
654 s | COc1cc(OC2CCN(C)CC2)ccc1Nc1ncc2c(n1)n(C1CCCC1)c(=O)n2C
884 s | CC1=C(c2ccc(C)c(C)c2)S(=O)(=O)N=C1N1CCC(C(=O)NCCc2ccco2)CC1
690 s | Cc1ccc(-c2nc(C(N)=O)c3n2CCCCC3)cc1
1110 s | COc1ccc(NS(=O)(=O)c2c(C)sc(C)c2-c2cc(C(F)(F)F)on2)cc1
655 s | CN(C)C(=O)c1cc2c(s1)CCC(C(=O)NCc1ccc(N3CCOCC3)cc1)C2 (configuration not stated)
701 s | CN1CCN(c2nc(Nc3ccc4c(c3)OCO4)c3cnn(-c4ccccc4)c3n2)CC1
944 s | CCc1ccccc1NC(=O)C1CCN(S(C)(=O)=O)c2cc(Cl)ccc2O1 (configuration not stated)
910 s | COc1ccc(C2(C(=O)N3CCC(c4nc(-c5cccn5C)no4)C3)CC2)cc1 (configuration not stated)
797 s | COc1cccc(C(=O)CSc2ccc(NC(=O)C3CC3)nn2)c1
822 s | CC(C)C(=O)Nc1nc(-c2ccc3c(c2)N(C)C(=O)C(C)O3)cs1 (configuration not stated)
740 s | CCc1nnc(-c2cn(CC(=O)NCc3ccc(C)o3)c3ccccc23)o1

RP-LC retention time | Structure (SMILES)
660 s | COc1cccc(-c2noc3ncnc(N4CCN(c5ccccn5)CC4)c23)c1
1280 s | CCOc1ccccc1NS(=O)(=O)c1ccccc1-c1nc(-c2cccc(F)c2)no1
893 s | Cc1cc(C2CCCN2C(=O)Nc2cc(Cl)ccc2C)no1 (configuration not stated)
708 s | COc1ccc(CCNC(=O)CSC2CCc3ccccc3NC2=O)cc1OC (configuration not stated)
1080 s | CCOC(=O)c1noc2ncnc(N(Cc3ccccc3)C(C)C)c12
1180 s | COc1cccc(CNc2ccc(-c3nc(-c4ccc(F)cc4)no3)cn2)c1
691 s | CCCC(NC(=O)Cc1cccc(F)c1)C(=O)Nc1nc2ccccc2[nH]1 (configuration not stated)
660 s | CCOc1ccc2ncc(S(=O)(=O)c3ccc(OC)cc3)c(N3CCN(CC)CC3)c2c1
1180 s | Cc1ccc(C)c(N2CCN(C(=O)c3ccc4c(c3)N(C)C(=O)C3CCCCN43)CC2)c1 (configuration not stated)
1030 s | CN(C)c1cccc(-c2nc(-c3cn(Cc4ccc(F)cc4)nn3)no2)c1
548 s | Fc1cc(F)c2nc(NCCCn3ccnc3)sc2c1
664 s | COc1ccc(CNC(=O)c2cc3c(=O)n(C)ccc3n2C)cc1
835 s | COc1cc(CNC(=O)C2=Cc3ccccc3OC2)cc(OC)c1OC
733 s | CSc1cccc(NC(=O)NCC(c2cccnc2)c2cn(C)c3ccccc23)c1 (configuration not stated)
571 s | Cc1c(C(=O)N2CCN(c3ccccn3)CC2)sc2nc3n(c(=O)c12)CCC3
1110 s | CCOc1ccc(-c2noc(CN3C(=O)COc4cc(C)ccc43)n2)cc1
591 s | COCCn1c(C2CCN(S(=O)(=O)c3ccc(C)c(Cl)c3)C2)nc2ccncc21 (configuration not stated)
907 s | CCc1cccc(C)c1Nc1c(-c2ccccc2O)nc2ncccn12
971 s | COc1ccc(-c2noc(C3CCCN3C(=O)c3cc4ccccc4[nH]3)n2)cc1OC (configuration not stated)
